We go through 45 compounds from patent US8114880B2, “Piperidine or piperazine substituted tetrahydro-naphthalene-1-carboxylic acid MTP inhibiting compounds” (Janssen Pharmaceutica N.V., priority 2006, dated 2012).

Structures are written as SMILES. pIC50: −log10 of the molar value.

Chain of MTP (P55157 19-894, species assumed): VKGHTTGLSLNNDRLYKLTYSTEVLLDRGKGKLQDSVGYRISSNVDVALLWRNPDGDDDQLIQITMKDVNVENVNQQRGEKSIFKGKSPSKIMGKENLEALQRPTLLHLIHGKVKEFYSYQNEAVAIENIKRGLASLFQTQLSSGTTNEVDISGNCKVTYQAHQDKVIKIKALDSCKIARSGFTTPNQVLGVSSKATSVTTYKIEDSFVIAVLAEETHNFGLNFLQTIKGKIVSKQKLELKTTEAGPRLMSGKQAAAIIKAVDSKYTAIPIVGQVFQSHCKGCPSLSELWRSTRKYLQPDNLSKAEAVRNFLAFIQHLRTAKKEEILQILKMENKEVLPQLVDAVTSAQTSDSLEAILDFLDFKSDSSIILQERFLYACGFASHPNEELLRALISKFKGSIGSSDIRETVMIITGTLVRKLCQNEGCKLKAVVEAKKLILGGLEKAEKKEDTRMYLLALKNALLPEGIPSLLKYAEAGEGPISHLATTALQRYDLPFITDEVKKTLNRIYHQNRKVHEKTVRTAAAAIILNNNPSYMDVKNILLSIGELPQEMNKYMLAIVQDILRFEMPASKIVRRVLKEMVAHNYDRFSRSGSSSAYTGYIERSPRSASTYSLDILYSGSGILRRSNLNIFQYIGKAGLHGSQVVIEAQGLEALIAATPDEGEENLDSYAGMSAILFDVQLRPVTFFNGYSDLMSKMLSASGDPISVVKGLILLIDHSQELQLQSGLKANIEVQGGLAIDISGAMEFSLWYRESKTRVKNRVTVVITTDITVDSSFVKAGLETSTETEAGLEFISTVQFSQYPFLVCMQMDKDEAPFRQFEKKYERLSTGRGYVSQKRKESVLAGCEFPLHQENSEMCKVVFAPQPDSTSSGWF
Chain of MTP (P07237 18-508 partner, species assumed): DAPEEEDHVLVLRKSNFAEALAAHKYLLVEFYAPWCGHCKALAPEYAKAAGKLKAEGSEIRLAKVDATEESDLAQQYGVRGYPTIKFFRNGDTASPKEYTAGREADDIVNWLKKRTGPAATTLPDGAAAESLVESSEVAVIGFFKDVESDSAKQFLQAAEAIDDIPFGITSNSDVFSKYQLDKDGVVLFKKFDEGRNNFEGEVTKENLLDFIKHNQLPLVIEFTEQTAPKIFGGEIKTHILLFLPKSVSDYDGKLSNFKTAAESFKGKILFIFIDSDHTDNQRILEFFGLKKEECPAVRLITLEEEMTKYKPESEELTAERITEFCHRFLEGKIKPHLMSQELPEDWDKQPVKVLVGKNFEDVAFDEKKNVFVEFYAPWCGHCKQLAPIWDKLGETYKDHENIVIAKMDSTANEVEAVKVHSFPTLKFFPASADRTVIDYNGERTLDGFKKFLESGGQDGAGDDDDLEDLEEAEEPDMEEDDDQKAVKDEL

The test deals with MTP (Homo sapiens, UniProt P55157). The test is described as follows: MTP assay (triglyceride transfer from donor to acceptor vesicles). It is filed as biochemical. Conditions: MTP activity, percent triglyceride transfer from donor to acceptor vesicles, 37° C. In outline:
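Radiolabelled triglyceride transfer from donor vesicles (phosphatidylcholine, 7.5 mol % cardiolipin, 0.25 mol % glycerol tri[1-^14C]-oleate) to phosphatidylcholine acceptor vesicles with BSA, pH 7.5 Tris buffer; compounds in DMSO (0.13% final), 5 min preincubation at 37° C before MTP addition. Donor vesicles removed on DEAE-52; acceptor-supernatant ^14C counts give percent transfer.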
In general, pIC50 refers to the negative decadic logarithm of the IC50, by convention in mol/L. In turn, `Cn1cccc(C(=O)NC2CCN(C(=O)[C@H]3CC[C@@](C(=O)N[C@@H](CCC(=O)OC(C)(C)C)C(=O)OC(C)(C)C)(c4ccccc4)c4ccccc43)CC2)c1=O` [Co. No. 171] showed a negative-log IC50 (pIC50) of 6.38.
The same measure for `Cn1cccc(C(=O)NC2CCN(C(=O)[C@H]3CC[C@@](C(=O)N4CCC[C@H]4C(=O)OC(C)(C)C)(c4ccccc4)c4ccccc43)CC2)c1=O` [Co. No. 173]: 5.48; for `Cn1cccc(C(=O)NC2CCN(C(=O)[C@H]3CC[C@@](C(=O)N4CCC[C@@H]4C(=O)OC(C)(C)C)(c4ccccc4)c4ccccc43)CC2)c1=O` [Co. No. 174]: 5.56; for `Cn1cccc(C(=O)NC2CCN(C(=O)[C@H]3CC[C@@](C(=O)N4C[C@H](OC(C)(C)C)C[C@H]4C(=O)OC(C)(C)C)(c4ccccc4)c4ccccc43)CC2)c1=O` [Co. No. 175]: 5.43.
The same measure for `Cn1cccc(C(=O)NC2CCN(C(=O)[C@H]3CC[C@@](C(=O)N[C@@H](C(=O)OC(C)(C)C)c4ccccc4)(c4ccccc4)c4ccccc43)CC2)c1=O` [Co. No. 176]: 5.73.
Next, `Cn1cccc(C(=O)NC2CCN(C(=O)[C@H]3CC[C@@](C(=O)N[C@H](C(=O)OC(C)(C)C)c4ccccc4)(c4ccccc4)c4ccccc43)CC2)c1=O` [Co. No. 177]: 5.79; `Cn1cccc(C(=O)NC2CCN(C(=O)[C@H]3CC[C@@](C(=O)N[C@@H](Cc4ccccc4)C(=O)OC(C)(C)C)(c4ccccc4)c4ccccc43)CC2)c1=O` [Co. No. 178]: 5.83; `Cn1cccc(C(=O)NC2CCN(C(=O)[C@H]3CC[C@@](C(=O)N[C@H](Cc4ccccc4)C(=O)OC(C)(C)C)(c4ccccc4)c4ccccc43)CC2)c1=O` [Co. No. 179]: 5.88.
Take `Cn1cccc(C(=O)NC2CCN(C(=O)[C@H]3CC[C@@](C(=O)N[C@@H](Cc4ccc(O)cc4)C(=O)OC(C)(C)C)(c4ccccc4)c4ccccc43)CC2)c1=O` [Co. No. 180]: the pIC50 is 5.57.
`Cn1cccc(C(=O)NC2CCN(C(=O)[C@H]3CC[C@@](C(=O)N[C@@H](CC(N)=O)C(=O)OC(C)(C)C)(c4ccccc4)c4ccccc43)CC2)c1=O` [Co. No. 181] gave a pIC50 of less than 5.00.
Next, `Cn1cccc(C(=O)NC2CCN(C(=O)[C@H]3CC[C@@](C(=O)NCC(=O)O)(c4ccccc4)c4ccccc43)CC2)c1=O` [Co. No. 182]: less than 5.00; `C[C@H](NC(=O)[C@@]1(c2ccccc2)CC[C@H](C(=O)N2CCC(NC(=O)c3cccn(C)c3=O)CC2)c2ccccc21)C(=O)O` [Co. No. 183]: less than 5.00.
The same measure for `C[C@@H](NC(=O)[C@@]1(c2ccccc2)CC[C@H](C(=O)N2CCC(NC(=O)c3cccn(C)c3=O)CC2)c2ccccc21)C(=O)O` [Co. No. 184]: less than 5.00.
Next, `CN(CC(=O)O)C(=O)[C@@]1(c2ccccc2)CC[C@H](C(=O)N2CCC(NC(=O)c3cccn(C)c3=O)CC2)c2ccccc21` [Co. No. 185]: less than 5.00; `Cn1cccc(C(=O)NC2CCN(C(=O)[C@H]3CC[C@@](C(=O)NCCC(=O)O)(c4ccccc4)c4ccccc43)CC2)c1=O` [Co. No. 186]: less than 5.00.
On to `CC(C)[C@H](NC(=O)[C@@]1(c2ccccc2)CC[C@H](C(=O)N2CCC(NC(=O)c3cccn(C)c3=O)CC2)c2ccccc21)C(=O)O` [Co. No. 187], for which the negative-log IC50 (pIC50) is less than 5.00.
Consider `CC(C)[C@@H](NC(=O)[C@@]1(c2ccccc2)CC[C@H](C(=O)N2CCC(NC(=O)c3cccn(C)c3=O)CC2)c2ccccc21)C(=O)O` [Co. No. 188], for which the pIC50 is less than 5.00.
`CC(C)C[C@H](NC(=O)[C@@]1(c2ccccc2)CC[C@H](C(=O)N2CCC(NC(=O)c3cccn(C)c3=O)CC2)c2ccccc21)C(=O)O` [Co. No. 189] gave a pIC50 of less than 5.00.
Next, `Cn1cccc(C(=O)NC2CCN(C(=O)[C@H]3CC[C@@](C(=O)NC(CCCCN)C(=O)O)(c4ccccc4)c4ccccc43)CC2)c1=O` (stereo partly drawn) [Co. No. 190]: less than 5.00.
Turning to `Cn1cccc(C(=O)NC2CCN(C(=O)[C@H]3CC[C@@](C(=O)N4CCC[C@@H]4C(=O)O)(c4ccccc4)c4ccccc43)CC2)c1=O` [Co. No. 191], the pIC50 was less than 5.00.
Next, `Cn1cccc(C(=O)NC2CCN(C(=O)[C@H]3CC[C@@](C(=O)N4C[C@H](O)C[C@H]4C(=O)O)(c4ccccc4)c4ccccc43)CC2)c1=O` [Co. No. 192]: less than 5.00; `Cn1cccc(C(=O)NC2CCN(C(=O)[C@H]3CC[C@@](C(=O)N[C@@H](C(=O)O)c4ccccc4)(c4ccccc4)c4ccccc43)CC2)c1=O` [Co. No. 193]: less than 5.00.
Next, `Cn1cccc(C(=O)NC2CCN(C(=O)[C@H]3CC[C@@](C(=O)N[C@H](C(=O)O)c4ccccc4)(c4ccccc4)c4ccccc43)CC2)c1=O` [Co. No. 194]: less than 5.00; `Cn1cccc(C(=O)NC2CCN(C(=O)[C@H]3CC[C@@](C(=O)N[C@@H](Cc4ccccc4)C(=O)O)(c4ccccc4)c4ccccc43)CC2)c1=O` [Co. No. 195]: less than 5.00.
Compound `Cn1cccc(C(=O)NC2CCN(C(=O)[C@H]3CC[C@@](C(=O)N[C@H](Cc4ccccc4)C(=O)O)(c4ccccc4)c4ccccc43)CC2)c1=O` [Co. No. 196] showed a pIC50 of less than 5.00.
In the case of `Cn1cccc(C(=O)NC2CCN(C(=O)[C@H]3CC[C@@](C(=O)N[C@@H](Cc4ccc(O)cc4)C(=O)O)(c4ccccc4)c4ccccc43)CC2)c1=O` [Co. No. 197], the pIC50 was less than 5.00.
The same measure for `Cn1cccc(C(=O)NC2CCN(C(=O)[C@H]3CC[C@@](C(=O)N[C@@H](CC(N)=O)C(=O)O)(c4ccccc4)c4ccccc43)CC2)c1=O` [Co. No. 198]: less than 5.00.
Next, `COC(=O)CCCNC(=O)[C@@]1(c2ccccc2)CC[C@H](C(=O)N2CCC(NC(=O)c3cccn(C)c3=O)CC2)c2ccccc21` [Co. No. 224]: 5.94.
Next, `CC(C)OC(=O)CCCCNC(=O)[C@@]1(c2ccccc2)CC[C@H](C(=O)N2CCC(NC(=O)c3cccn(C)c3=O)CC2)c2ccccc21` [Co. No. 227]: 6.64; `COC(=O)CCCCCNC(=O)[C@@]1(c2ccccc2)CC[C@H](C(=O)N2CCC(NC(=O)c3cccn(C)c3=O)CC2)c2ccccc21` [Co. No. 228]: 6.51; `Cn1cccc(C(=O)NC2CCN(C(=O)[C@H]3CC[C@@](C(=O)NCCCCCC(=O)OC(C)(C)C)(c4ccccc4)c4ccccc43)CC2)c1=O` [Co. No. 230]: 6.77.
Consider `CCOC(=O)NCCCC[C@H](CC(=O)[C@@]1(c2ccccc2)CC[C@H](C(=O)N2CCC(NC(=O)c3cccn(C)c3=O)CC2)c2ccccc21)C(=O)OCC` [Co. No. 232], for which the pIC50 was 5.48.
Take `CCOC(=O)[C@H](CCCCNC(=O)OC(C)C)NC(=O)[C@@]1(c2ccccc2)CC[C@H](C(=O)N2CCC(NC(=O)c3cccn(C)c3=O)CC2)c2ccccc21` [Co. No. 234]: the pIC50 was less than 5.00.
The same measure for `COC(=O)[C@H](CCCCNC(=O)[C@@]1(c2ccccc2)CC[C@H](C(=O)N2CCC(NC(=O)c3cccn(C)c3=O)CC2)c2ccccc21)NC(C)=O` [Co. No. 236]: 5.57.
The same measure for `COC(=O)[C@@H](CCCCNC(=O)OC(C)(C)C)NC(=O)[C@@]1(c2ccccc2)CC[C@H](C(=O)N2CCC(NC(=O)c3cccn(C)c3=O)CC2)c2ccccc21` [Co. No. 237]: 6.63; for `CCOC(=O)NCCCC[C@@H](NC(=O)[C@@]1(c2ccccc2)CC[C@H](C(=O)N2CCC(NC(=O)c3cccn(C)c3=O)CC2)c2ccccc21)C(=O)OC` [Co. No. 238]: 5.63; for `CCOC(=O)NCCCC[C@@H](NC(=O)[C@@]1(c2ccccc2)CC[C@H](C(=O)N2CCC(NC(=O)c3cccn(C)c3=O)CC2)c2ccccc21)C(=O)OCC` [Co. No. 239]: 6.19.
The same measure for `COC(=O)[C@@H](CCCCNC(=O)OC(C)C)NC(=O)[C@@]1(c2ccccc2)CC[C@H](C(=O)N2CCC(NC(=O)c3cccn(C)c3=O)CC2)c2ccccc21` [Co. No. 240]: 6.54; for `CCOC(=O)[C@@H](CCCCNC(=O)OC(C)C)NC(=O)[C@@]1(c2ccccc2)CC[C@H](C(=O)N2CCC(NC(=O)c3cccn(C)c3=O)CC2)c2ccccc21` [Co. No. 241]: 6.61; for `CC(C)OC(=O)NCCCC[C@@H](NC(=O)[C@@]1(c2ccccc2)CC[C@H](C(=O)N2CCC(NC(=O)c3cccn(C)c3=O)CC2)c2ccccc21)C(=O)OC(C)C` [Co. No. 242]: 5.63.
`CCOC(=O)[C@]1(c2ccccc2)CC[C@@H](C(=O)N2CCN(CC(=O)c3ccccc3OC)CC2)c2ccccc21` [Co. No. 259] showed a pIC50 of 7.20.
The same measure for `CCOC(=O)[C@]1(c2ccccc2)CC[C@@H](C(=O)N2CCC(NC(=O)c3ccccc3N3CCN(C)CC3)CC2)c2ccccc21` [Co. No. 268]: 7.84.
In turn, `C=CCOC(=O)[C@@]1(c2ccccc2)CC[C@H](C(=O)N2CCC(NC(=O)c3ccccc3N3CCN(C)CC3)CC2)c2ccccc21` [Co. No. 269] showed a pIC50 of 8.07.
Next, `CCOC(=O)[C@]1(c2ccccc2)CC[C@@H](C(=O)N2CCC(N(C)C(=O)c3ccccc3OC)CC2)c2ccccc21` [Co. No. 270]: 7.85; `CCOC(=O)[C@]1(c2cccc(F)c2)CC[C@@H](C(=O)N2CCC(NC(=O)c3ccccc3OC)CC2)c2cc(F)ccc21` [Co. No. 271]: 8.53.
